Test results taken from patent US20260125382A1, “COMPOUNDS FOR INHIBITING OR DEGRADING CDK2 AND/OR CDK9 AND MEDICINAL USE THEREOF” (KOREA RESEARCH INSTITUTE OF CHEMICAL TECHNOLOGY, priority 2022, published 2026).

How the values were obtained:
CDK9 = biological target: T1, CDK9 (Homo sapiens, UniProt P50750); experiment: CDK protein degradation activity (Western blotting), CDK9; type: cell-based; settings: MDA-MB-231 cells, 16 hours, Western blot
T1 construct: endogenous in cells; host or cells: MDA-MB-231
T1 sequence (P50750 whole entry): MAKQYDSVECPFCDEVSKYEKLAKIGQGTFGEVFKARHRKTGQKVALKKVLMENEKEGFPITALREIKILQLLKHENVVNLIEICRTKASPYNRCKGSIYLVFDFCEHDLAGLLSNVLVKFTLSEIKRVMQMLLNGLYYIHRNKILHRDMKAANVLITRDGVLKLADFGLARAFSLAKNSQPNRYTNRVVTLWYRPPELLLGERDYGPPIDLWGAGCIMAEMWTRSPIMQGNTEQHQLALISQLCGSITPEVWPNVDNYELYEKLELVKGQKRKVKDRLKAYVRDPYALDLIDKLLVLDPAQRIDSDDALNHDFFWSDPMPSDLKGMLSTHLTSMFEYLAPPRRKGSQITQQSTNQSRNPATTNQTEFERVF
In short: (§1)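 MDA-MB-231; cmpd 100 nM / 1 μM / 10 μM final vs DMSO, 16 h. Triton X-100 lysates (pH 7.5, phosphatase/protease inhibitors) → SDS-PAGE → Western blot, anti-CDK2, anti-CDK9, tubulin loading control; densitometry.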

CDK2 = biological target: T2, CDK2 (Homo sapiens, UniProt P24941); experiment: CDK protein degradation activity (Western blotting), CDK2; type: cell-based; settings: MDA-MB-231 cells, 16 hours, Western blot
T2 construct: endogenous in cells; host or cells: MDA-MB-231
In short: as §1

| Structure (SMILES) | Enzyme degradation CDK9 (% remaining) @ 0.1 μM (CDK9) | Enzyme degradation CDK9 (% remaining) @ 1 μM (CDK9) | Enzyme degradation CDK9 (% remaining) @ 10 μM (CDK9) | Enzyme degradation CDK2 (% remaining) @ 0.1 μM (CDK2) | Enzyme degradation CDK2 (% remaining) @ 1 μM (CDK2) | Enzyme degradation CDK2 (% remaining) @ 10 μM (CDK2) |
| --- | --- | --- | --- | --- | --- | --- |
| O=C1CC[C@H](N2C(=O)C=C(N3CCC(C(=O)N4CCC(CC(=O)N5CCN(c6ccc(Nc7ncnc8c7ncn8[C@H]7C[C@@H](NC(=O)Cc8ccccc8)C7)cc6)CC5)CC4)CC3)C2=O)C(=O)N1 [Compound 197, N-((1s,3s)-3-(6-((4-(4-(2-(1-(1-(1-(2,6-dioxopiperidin-3-yl)-2,5-dioxo-2,5-dihydro-1H-pyrrol-3-yl)piperidin-4-carbonyl)piperidin-4-yl)acetyl)piperazin-1-yl)phenyl)amino)-9H-purin-9-yl)cyclobutyl)-2-phenylacetamide] | 10% | 10% | 0% | 30/30/30% | 30/30/30% | 30/30/30% |
| O=C1CC[C@H](N2C(=O)c3ccc(N4CCC5(CC4)CC(N4CCC(c6ccc(Nc7ncnc8c7ncn8[C@H]7C[C@@H](NC(=O)Cc8ccccc8)C7)cc6)CC4)C5)cc3C2=O)C(=O)N1 [Compound 298, N-((1s,3s)-3-(6-((4-(1-(7-(2-(2,6-dioxopiperidin-3-yl)-1,3-dioxoisoindolin-5-yl)-7-azaspiro[3.5]nonan-2-yl)piperidin-4-yl)phenyl)amino)-9H-purin-9-yl)cyclobutyl)-2-phenylacetamide] | 10% | 0% | 0% | 10/10/10% | 10/10/10% | 10/10/10% |
| Cc1cccc(C(=O)N[C@H]2C[C@@H](n3cnc4c(NCCCN5CCN(CC6CCN(C(=O)COc7cccc([C@@H]8CCC(=O)NC8=O)c7)CC6)CC5)ncnc43)C2)n1 [Compound 230, N-((1s,3s)-3-(6-((3-(4-((1-(2-(3-(2,6-dioxopiperidin-3-yl)phenoxy)acetyl)piperidin-4-yl)methyl)piperazin-1-yl)propyl)amino)-9H-purin-9-yl)cyclobutyl)-6-methylpicolinamide] | 30% | 10% | 0% | 50% | 50% | 80% |
| Cc1cccc(C(=O)N[C@H]2C[C@@H](n3cnc4c(NC5CCN(CCOC6CCN(C(=O)COc7ccc8c(c7)C(=O)N([C@H]7CCC(=O)NC7=O)C8=O)CC6)CC5)ncnc43)C2)n1 [Compound 43, N-((1s,3s)-3-(6-((1-(2-((1-(2-((2-(2,6-dioxopiperidin-3-yl)-1,3-dioxoisoindolin-5-yl)oxy)acetyl)piperidin-4-yl)oxy)ethyl)piperidin-4-yl)amino)-9H-purin-9-yl)cyclobutyl)-6-methylpicolinamide] | 50% | 0% | 0% | 90% | 60% | 70% |
| O=C1CCC(N2C(=O)c3cccc(OCC(=O)N4CCN(CCCN5CCN(c6ccc(Nc7ncnc8c7ncn8[C@H]7C[C@@H](NC(=O)Cc8ccccc8)C7)cc6)CC5)CC4)c3C2=O)C(=O)N1 (stereo partly drawn) [Compound 232, N-((1s,3s)-3-(6-((4-(4-(3-(4-(2-((2-(2,6-dioxopiperidin-3-yl)-1,3-dioxoisoindolin-4-yl)oxy)acetyl)piperazin-1-yl)propyl)piperazin-1-yl)phenyl)amino)-9H-purin-9-yl)cyclobutyl)-2-phenylacetamide] | 90% | 10% | 0% | 60% | 20% | 20% |
| O=C1CC[C@H](N2C(=O)C=C(Nc3cccc(CC(=O)N4CCC(CN5CCN(c6ccc(Nc7ncnc8c7ncn8C7CC(NC(=O)Cc8ccccc8)C7)cc6)CC5)CC4)c3)C2=O)C(=O)N1 (stereo partly drawn) [Compound 188, N-((1s,3s)-3-(6-((4-(4-((1-(2-(3-((1-(2,6-dioxopiperidin-3-yl)-2,5-dioxo-2,5-dihydro-1H-pyrrol-3-yl)amino)phenyl)acetyl)piperidin-4-yl)methyl)piperazin-1-yl)phenyl)amino)-9H-purin-9-yl)cyclobutyl)-2-phenylacetamide] | 20% | 20% | 10% | 80% | 70% | 60% |
| O=C1CCN(c2coc3cc(C(=O)NC[C@H]4CC[C@H](CN5CCN(c6ccc(Nc7ncnc8c7ncn8[C@H]7C[C@@H](NC(=O)Cc8ccccc8)C7)cc6)CC5)CC4)ccc23)C(=O)N1 [Compound 199, 3-(2,4-dioxotetrahydropyrimidin-1(2H)-yl)-N-(((1r,4r)-4-((4-(4-((9-((1s,3s)-3-(2-phenylacetamido)cyclobutyl)-9H-purin-6-yl)amino)phenyl)piperazin-1-yl)methyl)cyclohexyl)methyl)benzofuran-6-carboxamide] | 20% | 30% | 30% | 50% | 60% | 50% |
| COc1ccc(C(=O)N2CCC(CC(=O)N3CCN(c4ccc(Nc5ncnc6c5ncn6[C@H]5C[C@@H](NC(=O)Cc6ccccc6)C5)cc4)CC3)CC2)cc1N1CCC(=O)NC1=O [Compound 194, N-((1s,3s)-3-(6-((4-(4-(2-(1-(3-(2,4-dioxotetrahydropyrimidin-1(2H)-yl)-4-methoxybenzoyl)piperidin-4-yl)acetyl)piperazin-1-yl)phenyl)amino)-9H-purin-9-yl)cyclobutyl)-2-phenylacetamide] | 70% | 50% | 40% | 50% | 10% | 10% |
| Cc1cccc(C(=O)NC2CC(n3cnc4c(Nc5ccc(N6CCN(CCC7CCN(c8ccc9c(c8)C(=O)N([C@H]8CCC(=O)NC8=O)C9=O)CC7)CC6)cc5)ncnc43)C2)n1 (stereo partly drawn) [Compound 380, N-((1s,3s)-3-(6-((4-(4-(2-(1-(2-(2,6-dioxopiperidin-3-yl)-1,3-dioxoisoindolin-5-yl)piperidin-4-yl)ethyl)piperazin-1-yl)phenyl)amino)-9H-purin-9-yl)cyclobutyl)-6-methylpicolinamide] | 0/0/0% | 0/0/0% | 0/0/0% | 40% | 40% | 30% |
| O=C1CC[C@H](N2C(=O)c3ccc(N4CC(C(=O)N5CCC(CCCN6CCN(c7ccc(Nc8ncnc9c8ncn9C8CC(NC(=O)Cc9ccccc9)C8)cc7)CC6)CC5)C4)cc3C2=O)C(=O)N1 (stereo partly drawn) [Compound 372, N-((1s,3s)-3-(6-((4-(4-(3-(1-(1-(2-(2,6-dioxopiperidin-3-yl)-1,3-dioxoisoindolin-5-yl)azetidin-3-carbonyl)piperidin-4-yl)propyl)piperazin-1-yl)phenyl)amino)-9H-purin-9-yl)cyclobutyl)-2-phenylacetamide] | 0/0/0% | 0/0/0% | 0/0/0% | 90% | 50% | 50% |
| COc1ccc(C(=O)N2CCC3(CC2)CC(N2CCC(c4ccc(Nc5ncnc6c5ncn6[C@H]5C[C@@H](NC(=O)Cc6ccccc6)C5)cc4)CC2)C3)cc1N1CCC(=O)NC1=O [Compound 286, N-((1s,3s)-3-(6-((4-(1-(7-(3-(2,4-dioxotetrahydropyrimidin-1(2H)-yl)-4-methoxybenzoyl)-7-azaspiro[3.5]nonan-2-yl)piperidin-4-yl)phenyl)amino)-9H-purin-9-yl)cyclobutyl)-2-phenylacetamide] | 40% | 30% | 30% | 40% | 60% | 70% |
